Molecular target: Cannabinoid receptor 1 (Taricha granulosa, UniProt Q9PUI7)
Sequence (Q9PUI7 whole entry): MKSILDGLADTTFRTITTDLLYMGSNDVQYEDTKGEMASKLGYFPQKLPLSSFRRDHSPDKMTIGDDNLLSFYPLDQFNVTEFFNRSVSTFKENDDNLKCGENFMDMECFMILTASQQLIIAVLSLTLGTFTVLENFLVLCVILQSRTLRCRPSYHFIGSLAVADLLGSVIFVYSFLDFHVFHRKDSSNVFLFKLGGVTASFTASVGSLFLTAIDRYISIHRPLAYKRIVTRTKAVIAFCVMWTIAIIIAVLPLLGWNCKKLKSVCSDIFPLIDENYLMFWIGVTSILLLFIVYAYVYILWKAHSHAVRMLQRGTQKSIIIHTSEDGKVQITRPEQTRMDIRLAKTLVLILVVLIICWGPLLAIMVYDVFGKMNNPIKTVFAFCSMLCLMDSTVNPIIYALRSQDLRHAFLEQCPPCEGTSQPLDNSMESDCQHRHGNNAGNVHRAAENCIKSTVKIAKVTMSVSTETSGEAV

Structure (SMILES) | Ki [nM]
Cc1c(C(=O)c2cccc3ccccc23)c2cccc3c2n1[C@H](CN1CCOCC1)CO3 [WIN55212-2] | 25.7
CCCCC/C=C\C/C=C\C/C=C\C/C=C\CCCCCC(=O)NCCO | 2400
CC(=O)Oc1cc(OC(C)CCCc2ccccc2)cc2c1C1CC(O)CCC1C(C)N2 (centres undefined) [NSC_107822] | 13
CCCCCCC(C)(C)c1ccc([C@H]2C[C@@H](O)CC[C@@H]2CCCO)c(O)c1 [CP-56667 [(+)-AC],XV] | 3.8

From BindingDB's records for doi:10.1046/j.1471-4159.2000.0750413.x (Oregon State University, 2000)
